Results as given in patent US8440442B2, “Method of assaying 5-FU” (Myriad Genetics, Inc, priority 2009, dated 2013).

Biological target: T1, dihydropyrimidine dehydrogenase (DPD) (Homo sapiens, UniProt Q12882)
T1 construct: from tissue; host or cells: donor whole blood (K2EDTA), plasma separated from it, and WBC/buffy coat
T1 sequence (Q12882 4-1025): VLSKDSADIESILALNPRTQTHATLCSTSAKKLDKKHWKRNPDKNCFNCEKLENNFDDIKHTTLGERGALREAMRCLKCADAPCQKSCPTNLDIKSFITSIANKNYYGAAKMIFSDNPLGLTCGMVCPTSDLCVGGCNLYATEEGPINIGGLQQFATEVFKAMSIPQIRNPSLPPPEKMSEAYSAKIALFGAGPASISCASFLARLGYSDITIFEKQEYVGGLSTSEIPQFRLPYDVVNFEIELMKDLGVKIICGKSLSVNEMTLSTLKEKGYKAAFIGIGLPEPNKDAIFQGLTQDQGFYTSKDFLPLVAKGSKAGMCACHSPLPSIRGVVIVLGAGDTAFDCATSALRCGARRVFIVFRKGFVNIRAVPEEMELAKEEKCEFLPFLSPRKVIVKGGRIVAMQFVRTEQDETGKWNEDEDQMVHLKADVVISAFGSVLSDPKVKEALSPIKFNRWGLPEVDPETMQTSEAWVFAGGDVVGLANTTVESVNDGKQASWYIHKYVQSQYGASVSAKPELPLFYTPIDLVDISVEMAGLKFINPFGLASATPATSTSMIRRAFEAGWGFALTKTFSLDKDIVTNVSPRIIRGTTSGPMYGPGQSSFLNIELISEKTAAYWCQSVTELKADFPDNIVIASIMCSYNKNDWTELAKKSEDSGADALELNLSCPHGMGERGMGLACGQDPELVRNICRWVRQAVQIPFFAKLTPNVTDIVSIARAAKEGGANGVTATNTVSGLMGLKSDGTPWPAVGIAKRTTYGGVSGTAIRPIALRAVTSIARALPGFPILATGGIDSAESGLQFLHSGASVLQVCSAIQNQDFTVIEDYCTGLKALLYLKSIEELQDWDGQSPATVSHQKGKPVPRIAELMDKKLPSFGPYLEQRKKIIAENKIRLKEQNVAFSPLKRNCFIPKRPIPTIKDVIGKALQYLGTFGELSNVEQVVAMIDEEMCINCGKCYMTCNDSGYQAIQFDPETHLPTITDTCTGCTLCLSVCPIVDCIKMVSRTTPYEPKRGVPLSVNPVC
Assay: Amount of DPD inactivator needed: gimeracil in 5-FU spiked blood, plasma with or without added WBC/buffy coat
Assay type: biochemical
Conditions: for Average 5-FU Measurement Initial / Average 5-FU Measurement 24-hour: in ng/mL; for Average 5-FU Measurement 24-hour: plasma 24 hours at room temperature
Experimental: In the following illustrative examples, 5-FU was measured using an antibody-based agglutination assay on the Olympus AU680 Analyzer using an antibody disclosed in U.S. Pat. No. 7,205,116. Specifically, the concentration of 5-FU in a sample is determined based on the absorbance of a sample, which is determined by the amount of aggregation by the nanoparticles. The system requires two reagents, which when mixed in the absence of free 5-FU will form large aggregates of nanoparticles and scatter light to result in a higher absorption value. In the presence of free 5-FU, the agglutination reaction becomes somewhat inhibited and scattering of light is less, causing a lower absorption value. The instrument is calibrated twice monthly, and a curve is generated (Absorbance vs. 5-FU concentration). Absorbance values from individual samples are compared against this curve to determine concentration.
Generally in the agglutination assay, 95 μl of a buffer containing 5-FU-labeled amino-dextran is pipetted to a cuvette, followed by 7 μL of a filtered plasma sample. The sample and reagent are mixed and then incubated for about 3.5 minutes. 95 μl of 5-FU antibody-conjugated nanoparticles is pipetted into the cuvette and mixed. The complete reaction incubates for about 6.2 minutes. A series of 27 measurements at 600 nm are taken at regular intervals by the AU680 analyzer throughout this process, and 5-FU concentration is calculated using the measurements from two specific time points.
Four tubes of blood (spray-on K2EDTA tubes, 10 mL) was drawn from each of six donors, and gently inverted several times to mix anti-coagulant. All donor blood was pooled into one large tube, and two equal aliquots of that pooled blood were transferred to two new tubes. The remaining blood was used to isolate white blood cell (WBC)/buffy coat. WBC/buffy coat was isolated by centrifuging the remaining blood tubes, extracting and pooling the WBC layer from each tube, centrifuging again to enrich the WBC/buffy coat, and separating the enriched WBC/buffy coat layer into a clean tube. One volume of blood was spiked with a calculated volume of stock 5-FU (at 200 ng/μL) for a final concentration of 500 ng/mL, and the other volume of blood was spiked with a calculated volume of stock 5-FU (at 200 ng/μL) for a final concentration of 1500 ng/mL. Three sets of eight tubes each were prepared to aliquot the spiked blood into. In addition, a negative control was used that was inoculated with 300 μL of 30% methanol/water instead of gimeracil. To four of the eight tubes per set, the low concentration 5-FU blood was aliquotted, 6 mL each tube. The high concentration 5-FU blood was aliquotted to the remaining four tubes per set, as well as to the negative control tube, 6 mL each. The eight tubes were then inoculated with either 300 μL of 0.12 mg/mL gimeracil in 30% MeOH/water or 300 μL of 0.04 mg/mL gimeracil. Blood tubes were inverted to mix the gimeracil, and then sat at room temperature for 45 minutes. Blood tubes were centrifuged at 2000×g for 10 minutes and room temperature. Plasma was aspirated immediately after centrifugation and dispensed into clean cryovials. The WBC/buffy coat was added to designated tubes of plasma, and vortexed to evenly mix. Plasma samples were run under standard conditions for the AU680 analyzer (200 μL, spin for 15 minutes at 12,500 rpm). Measurements were taken immediately after adding WBC/buffy coat (“initial”), as well as 24 hours (“24-hour”), after addition of WBC/buffy coat. For the 24-hour measurement, plasma was stored at room temperature for the first 24 hours of the experiment to simulate overnight ambient shipping.

[1] = target 5-FU 500 ng/mL, gimeracil 2000 ng/mL, NO WBC
[2] = target 5-FU 500 ng/mL, gimeracil 2000 ng/mL, w/WBC
[3] = target 5-FU 500 ng/mL, gimeracil 6000 ng/mL, NO WBC
[4] = target 5-FU 500 ng/mL, gimeracil 6000 ng/mL, w/WBC
[5] = target 5-FU 1500 ng/mL, gimeracil 2000 ng/mL, NO WBC
[6] = target 5-FU 1500 ng/mL, gimeracil 2000 ng/mL, w/WBC
[7] = target 5-FU 1500 ng/mL, gimeracil 6000 ng/mL, NO WBC
[8] = target 5-FU 1500 ng/mL, gimeracil 6000 ng/mL, w/WBC

## Oc1cc(O)c(Cl)cn1 [Gimeracil, 5-chloro-2,4-dihydroxypyridine]
[1]
  % change (Initial vs. 24-hour): −2.9%
  Average 5-FU Measurement 24-hour: 474.3
Target 5-FU 500 ng/mL, gimeracil 2000 ng/mL, NO WBC, initial
  Average 5-FU Measurement Initial: 488.3
[2]
  % change (Initial vs. 24-hour): 2.7%
  Average 5-FU Measurement 24-hour: 478.6
Target 5-FU 500 ng/mL, gimeracil 2000 ng/mL, w/WBC, immediately after adding WBC/buffy coat
  Average 5-FU Measurement Initial: 465.8
[3]
  % change (Initial vs. 24-hour): 1.7%
  Average 5-FU Measurement 24-hour: 487.3
Target 5-FU 500 ng/mL, gimeracil 6000 ng/mL, NO WBC, initial
  Average 5-FU Measurement Initial: 479.1
[4]
  % change (Initial vs. 24-hour): 1.0%
  Average 5-FU Measurement 24-hour: 478.6
Target 5-FU 500 ng/mL, gimeracil 6000 ng/mL, w/WBC, initial
  Average 5-FU Measurement Initial: 473.7
[5]
  % change (Initial vs. 24-hour): −0.5%
  Average 5-FU Measurement 24-hour: 1427.3
Target 5-FU 1500 ng/mL, gimeracil 2000 ng/mL, NO WBC, initial
  Average 5-FU Measurement Initial: 1434.9
[6]
  % change (Initial vs. 24-hour): 2.9%
  Average 5-FU Measurement 24-hour: 1418.1
Target 5-FU 1500 ng/mL, gimeracil 2000 ng/mL, w/WBC, initial
  Average 5-FU Measurement Initial: 1377.7
[7]
  % change (Initial vs. 24-hour): 2.0%
  Average 5-FU Measurement 24-hour: 1458.3
Target 5-FU 1500 ng/mL, gimeracil 6000 ng/mL, NO WBC, initial
  Average 5-FU Measurement Initial: 1430.3
[8]
  % change (Initial vs. 24-hour): −0.9%
  Average 5-FU Measurement 24-hour: 1390.1
Target 5-FU 1500 ng/mL, gimeracil 6000 ng/mL, w/WBC, initial
  Average 5-FU Measurement Initial: 1402.9
